Measured values published in patent US8901118B2, “Compounds and methods for kinase modulation, and indications therefor” (Plexxikon Inc., priority 2010, dated 2014).
pIC50: −log10 of the molar value.

Legend:
[1] = target: Fms kinase (Homo sapiens, UniProt P07333); test: Fms kinase biochemical activity assay (AlphaScreen, biotin-(E4Y)10 phosphorylation); details: 100 μM ATP; read-out: Biochemical Inhibition IC50 Fms
Procedure, shortened: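 Fms kinase (1 ng/well) phosphorylating 30 nM biotin-(E4Y)10 with 100 μM ATP in 25 mM Hepes pH 7.5, MgCl2/MnCl2, 5% DMSO, 20 min at 30 °C. Phosphotyrosine detected by AlphaScreen streptavidin donor and PY20 acceptor beads; IC50 from signal versus compound concentration.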

[2] = Relative solubility by turbidity in aqueous buffers (pH 1.5, 4.5, 6.8, 7.4); format: physicochemical; details: for turbidity threshold (L, M, H) 1.4: pH 1.5 (SGF); for turbidity threshold (L, M, H) 4.5: pH 4.5 (SIF); for turbidity threshold (L, M, H) 6.8: pH 6.8 (SIF); for turbidity threshold (L, M, H) 7.4: pH 7.4 (HEPES)
Procedure, shortened: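 Twofold DMSO dilutions of a 25 mM stock were spiked into SGF (0.5M NaCl, pH 1.5), SIF (0.05M NaH2PO4, pH 4.5 and 6.8) or HEPES buffer (10 mM HEPES, 150 mM NaCl, pH 7.4). Absorbance was read at 490, 535 and 650 nm. The endpoint is the concentration crossing O.D. 0.01, averaged across wavelengths.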

[3] = target: T1, CYP1A2 (Homo sapiens, UniProt P05177); test: CYP1A2 inhibition (fluorescent substrate CEC); format: in vitro ADME; details: read-out: Cyp IC50 1A2
T1 sequence (P05177 1-516): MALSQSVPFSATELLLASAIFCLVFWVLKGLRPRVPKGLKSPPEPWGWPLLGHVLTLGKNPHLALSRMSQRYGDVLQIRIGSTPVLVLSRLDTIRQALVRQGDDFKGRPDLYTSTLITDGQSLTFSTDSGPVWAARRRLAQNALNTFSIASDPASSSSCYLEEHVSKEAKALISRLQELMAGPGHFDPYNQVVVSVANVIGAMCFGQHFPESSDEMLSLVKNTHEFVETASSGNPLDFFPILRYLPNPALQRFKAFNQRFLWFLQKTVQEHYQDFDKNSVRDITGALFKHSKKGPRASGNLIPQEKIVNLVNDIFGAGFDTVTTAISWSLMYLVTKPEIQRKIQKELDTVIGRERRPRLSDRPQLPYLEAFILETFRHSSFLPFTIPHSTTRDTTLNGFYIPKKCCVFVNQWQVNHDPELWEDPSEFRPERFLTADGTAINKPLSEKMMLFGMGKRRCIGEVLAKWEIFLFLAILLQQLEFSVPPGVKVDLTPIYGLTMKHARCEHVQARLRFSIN
Procedure, shortened: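 Compounds, serially diluted 1:1 over 10 points in NADPH-regenerating cofactor mix with 5% acetonitrile, were preincubated 10 min at 37 °C, then run with enzyme and substrate at 37 °C (CYP1A2 15 min; CYP2C9 45 min; CYP2C19, CYP2D6 30 min). Product fluorescence gave IC50s.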

Fms kinase, sequence (P07333 20-972): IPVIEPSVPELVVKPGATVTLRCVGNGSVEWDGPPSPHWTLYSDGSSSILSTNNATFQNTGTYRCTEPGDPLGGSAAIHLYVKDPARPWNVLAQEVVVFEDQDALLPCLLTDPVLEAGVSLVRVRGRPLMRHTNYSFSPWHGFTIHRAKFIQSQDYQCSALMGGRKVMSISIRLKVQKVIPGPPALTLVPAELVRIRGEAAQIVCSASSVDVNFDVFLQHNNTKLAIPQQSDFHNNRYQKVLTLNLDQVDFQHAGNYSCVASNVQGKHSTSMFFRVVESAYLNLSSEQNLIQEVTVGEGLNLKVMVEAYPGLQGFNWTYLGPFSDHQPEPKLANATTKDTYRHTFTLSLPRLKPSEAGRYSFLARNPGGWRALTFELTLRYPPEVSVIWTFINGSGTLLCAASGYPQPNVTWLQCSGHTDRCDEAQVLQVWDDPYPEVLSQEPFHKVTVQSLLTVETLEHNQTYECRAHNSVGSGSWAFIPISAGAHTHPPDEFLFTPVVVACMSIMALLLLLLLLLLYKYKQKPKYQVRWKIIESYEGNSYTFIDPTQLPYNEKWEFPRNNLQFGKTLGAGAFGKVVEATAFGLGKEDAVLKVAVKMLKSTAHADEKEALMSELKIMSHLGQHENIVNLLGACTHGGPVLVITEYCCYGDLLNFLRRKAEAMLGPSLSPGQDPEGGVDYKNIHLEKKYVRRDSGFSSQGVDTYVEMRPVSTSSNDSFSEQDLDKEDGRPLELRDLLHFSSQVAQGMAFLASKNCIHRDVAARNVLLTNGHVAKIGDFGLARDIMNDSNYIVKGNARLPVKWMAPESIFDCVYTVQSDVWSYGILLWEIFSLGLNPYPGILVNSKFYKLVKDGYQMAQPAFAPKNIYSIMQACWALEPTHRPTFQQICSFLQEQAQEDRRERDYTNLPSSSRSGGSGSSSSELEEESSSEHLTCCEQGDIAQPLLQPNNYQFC

Row | SMILES | pIC50 [1] | turbidity threshold (L, M, H) 1.4 [2] | turbidity threshold (L, M, H) 4.5 [2] | turbidity threshold (L, M, H) 6.8 [2] | turbidity threshold (L, M, H) 7.4 [2] | pIC50 [3]
1 | Cc1ccc(Nc2ccc(C(=O)c3c[nH]c4ncnc(NC5CCCCC5)c34)c(F)n2)cn1 [Compound P-4111, [4-(cyclohexylamino)-7H-pyrrolo[2,3-d]pyrimidin-5-yl]-[2-fluoro-6-[(6-methyl-3-pyridyl)amino]-3-pyridyl]methanone] | > 7.00 | H (high solubility if the threshold concentration is >250 μm) | L (low solubility if the threshold concentration is <31.3 μM) | L (low solubility if the threshold concentration is <31.3 μM) | L (low solubility if the threshold concentration is <31.3 μM) | < 5.00
2 | Cc1ccc(Nc2ccc(C(=O)c3c[nH]c4ncnc(NCC(F)(F)F)c34)c(F)n2)cn1 [Compound P-4112, [2-fluoro-6-[(6-methyl-3-pyridyl)amino]-3-pyridyl]-[4-(2,2,2-trifluoroethylamino)-7H-pyrrolo[2,3-d]pyrimidin-5-yl]methanone] | > 7.00 | M (moderate solubility if the threshold concentration is 31.3 μM to 250 μM) | M (moderate solubility if the threshold concentration is 31.3 μM to 250 μM) | M (moderate solubility if the threshold concentration is 31.3 μM to 250 μM) | H (high solubility if the threshold concentration is >250 μm) | > 5.30
3 | CCCNc1ncnc2[nH]cc(C(=O)c3ccc(Nc4ccc(C)nc4)nc3F)c12 [Compound P-4114, [2-fluoro-6-[(6-methyl-3-pyridyl)amino]-3-pyridyl]-[4-(propylamino)-7H-pyrrolo[2,3-d]pyrimidin-5-yl]methanone] | > 8.00 | H (high solubility if the threshold concentration is >250 μm) | L (low solubility if the threshold concentration is <31.3 μM) | L (low solubility if the threshold concentration is <31.3 μM) | L (low solubility if the threshold concentration is <31.3 μM) | < 5.00
4 | CNc1ncnc2[nH]cc(C(=O)c3ccc(Nc4ccc(C)nc4)nc3F)c12 [Compound P-4115, [2-fluoro-6-[(6-methyl-3-pyridyl)amino]-3-pyridyl]-[4-(methylamino)-7H-pyrrolo[2,3-d]pyrimidin-5-yl]methanone] | > 8.00 | H (high solubility if the threshold concentration is >250 μm) | M (moderate solubility if the threshold concentration is 31.3 μM to 250 μM) | M (moderate solubility if the threshold concentration is 31.3 μM to 250 μM) | M (moderate solubility if the threshold concentration is 31.3 μM to 250 μM) | > 5.30
5 | CCc1ccc(Nc2ccc(C(=O)c3c[nH]c4ncnc(NC5CCOCC5)c34)c(F)n2)cn1 [Compound P-4116, [6-[(6-ethyl-3-pyridyl)amino]-2-fluoro-3-pyridyl]-[4-(tetrahydropyran-4-ylamino)-7H-pyrrolo[2,3-d]pyrimidin-5-yl]methanone] | > 7.00 | H (high solubility if the threshold concentration is >250 μm) | M (moderate solubility if the threshold concentration is 31.3 μM to 250 μM) | M (moderate solubility if the threshold concentration is 31.3 μM to 250 μM) | M (moderate solubility if the threshold concentration is 31.3 μM to 250 μM) | < 5.00
6 | CCc1ccc(Nc2ccc(C(=O)c3c[nH]c4ncnc(NC(C)C)c34)c(F)n2)cn1 [Compound P-4117, [6-[(6-ethyl-3-pyridyl)amino]-2-fluoro-3-pyridyl]-[4-(isopropylamino)-7H-pyrrolo[2,3-d]pyrimidin-5-yl]methanone] | > 8.00 | H (high solubility if the threshold concentration is >250 μm) | L (low solubility if the threshold concentration is <31.3 μM) | L (low solubility if the threshold concentration is <31.3 μM) | L (low solubility if the threshold concentration is <31.3 μM) | 5.00 to 5.30
7 | CCc1ccc(Nc2ccc(C(=O)c3c[nH]c4ncnc(NCC5CC5)c34)c(F)n2)cn1 [Compound P-4118, [4-(cyclopropylmethylamino)-7H-pyrrolo[2,3-d]pyrimidin-5-yl]-[6-[(6-ethyl-3-pyridyl)amino]-2-fluoro-3-pyridyl]methanone] | > 7.00 | H (high solubility if the threshold concentration is >250 μm) | M (moderate solubility if the threshold concentration is 31.3 μM to 250 μM) | M (moderate solubility if the threshold concentration is 31.3 μM to 250 μM) | L (low solubility if the threshold concentration is <31.3 μM) | < 5.00
8 | CCc1ccc(Nc2ccc(C(=O)c3c[nH]c4ncnc(NCCOC)c34)c(F)n2)cn1 [Compound P-4119, [6-[(6-ethyl-3-pyridyl)amino]-2-fluoro-3-pyridyl]-[4-(2-methoxyethylamino)-7H-pyrrolo[2,3-d]pyrimidin-5-yl]methanone] | > 8.00 | H (high solubility if the threshold concentration is >250 μm) | M (moderate solubility if the threshold concentration is 31.3 μM to 250 μM) | M (moderate solubility if the threshold concentration is 31.3 μM to 250 μM) | L (low solubility if the threshold concentration is <31.3 μM) | < 5.00
9 | CCc1ccc(Nc2ccc(C(=O)c3c[nH]c4ncnc(NCC(F)(F)F)c34)c(F)n2)cn1 [Compound P-4120, [6-[(6-ethyl-3-pyridyl)amino]-2-fluoro-3-pyridyl]-[4-(2,2,2-trifluoroethylamino)-7H-pyrrolo[2,3-d]pyrimidin-5-yl]methanone] | > 7.00 | L (low solubility if the threshold concentration is <31.3 μM) | M (moderate solubility if the threshold concentration is 31.3 μM to 250 μM) | M (moderate solubility if the threshold concentration is 31.3 μM to 250 μM) | M (moderate solubility if the threshold concentration is 31.3 μM to 250 μM) | > 5.30
10 | CCc1ccc(Nc2ccc(C(=O)c3c[nH]c4ncnc(NCC(C)C)c34)c(F)n2)cn1 [Compound P-4121, [6-[(6-ethyl-3-pyridyl)amino]-2-fluoro-3-pyridyl]-[4-(isobutylamino)-7H-pyrrolo[2,3-d]pyrimidin-5-yl]methanone] | > 7.00 | H (high solubility if the threshold concentration is >250 μm) | H (high solubility if the threshold concentration is >250 μm) | H (high solubility if the threshold concentration is >250 μm) | H (high solubility if the threshold concentration is >250 μm) | < 5.00
11 | CCCNc1ncnc2[nH]cc(C(=O)c3ccc(Nc4ccc(CC)nc4)nc3F)c12 [Compound P-4122, [6-[(6-ethyl-3-pyridyl)amino]-2-fluoro-3-pyridyl]-[4-(propylamino)-7H-pyrrolo[2,3-d]pyrimidin-5-yl]methanone] | > 8.00 | H (high solubility if the threshold concentration is >250 μm) | L (low solubility if the threshold concentration is <31.3 μM) | M (moderate solubility if the threshold concentration is 31.3 μM to 250 μM) | L (low solubility if the threshold concentration is <31.3 μM) | < 5.00
12 | CCNc1ncnc2[nH]cc(C(=O)c3ccc(Nc4ccc(CC)nc4)nc3F)c12 [Compound P-4123, [4-(ethylamino)-7H-pyrrolo[2,3-d]pyrimidin-5-yl]-[6-[(6-ethyl-3-pyridyl)amino]-2-fluoro-3-pyridyl]methanone] | > 8.00 | H (high solubility if the threshold concentration is >250 μm) | L (low solubility if the threshold concentration is <31.3 μM) | L (low solubility if the threshold concentration is <31.3 μM) | L (low solubility if the threshold concentration is <31.3 μM) | < 5.00
